Reference: patent US10981894B2, “Melanocortin subtype-2 receptor (MC2R) antagonists and uses thereof” (Crinetics Pharmaceuticals, Inc., priority 2018, dated 2021)

Molecular target: hMC2 receptor (Homo sapiens, UniProt Q01718)
Test: hMC2 membrane binding assay ([125I]ACTH (1-39) Tyr23, SPA)
Set-up: scale not given here
Details: crude hMC2R membranes from CRE-bla-CHO-K1 cells expressing hMC2 receptor and hMRAP; [125I]ACTH (1-39) Tyr23 0.2 nM; 1.5 hours at room temperature; read-out: MC2R binding potency
Summary of the method: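 Ki comes from non-linear regression of SPA scintillation counts. Displacement of 0.2 nM [125I]ACTH(1-39) Tyr23 by compound dose series (usually 0–10,000 nM final) ran 1.5 h at room temperature. Membranes came from CHO-K1 CRE-bla cells stably expressing hMC2R plus hMRAP, bead-coupled in pH 7.4 buffer with 0.2% BSA.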

Chain of hMC2 receptor (Q01718 whole entry): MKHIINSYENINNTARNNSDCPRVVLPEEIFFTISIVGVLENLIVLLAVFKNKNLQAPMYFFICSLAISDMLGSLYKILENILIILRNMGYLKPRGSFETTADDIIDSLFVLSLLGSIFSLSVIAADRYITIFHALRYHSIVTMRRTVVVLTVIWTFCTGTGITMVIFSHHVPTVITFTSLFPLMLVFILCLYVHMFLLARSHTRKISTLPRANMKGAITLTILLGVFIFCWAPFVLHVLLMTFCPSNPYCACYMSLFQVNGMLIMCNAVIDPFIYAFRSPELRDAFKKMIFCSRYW
Chain of hMC2 receptor (Q8TCY5 whole entry partner): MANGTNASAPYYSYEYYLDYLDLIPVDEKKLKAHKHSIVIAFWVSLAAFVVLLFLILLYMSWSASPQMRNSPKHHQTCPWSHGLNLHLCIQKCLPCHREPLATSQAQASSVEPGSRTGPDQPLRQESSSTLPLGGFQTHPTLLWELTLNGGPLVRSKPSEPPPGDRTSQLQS

| Ki | SMILES |
| --- | --- |
| < 10 nM | CCOc1ncccc1-c1ccc(N2CCN(C(=O)c3ccc(Cl)cc3C(F)F)C[C@H]2CC)c(C(=O)NCCNC)c1F [Compound 1-183, 6-[(2R)-4-[4-chloro-2-(difluoromethyl)benzoyl]-2-ethylpiperazin-1-yl]-3-(2-ethoxypyridin-3-yl)-2-fluoro-N-[2-(methylamino)ethyl]benzamide] |
| < 10 nM | CCOc1ncccc1-c1ccc(N2CCN(C(=O)c3ccc(Cl)cc3C(F)F)C[C@H]2CC)c(C(=O)NCCN(C)C)c1F [Compound 1-184, 6-[(2R)-4-[4-chloro-2-(difluoromethyl)benzoyl]-2-ethylpiperazin-1-yl]-N-[2-(dimethylamino)ethyl]-3-(2-ethoxypyridin-3-yl)-2-fluorobenzamide] |
| < 10 nM | CCOc1ncccc1-c1ccc(N2CCN(C(=O)c3ccc(OC)nc3C(F)(F)F)C[C@H]2CC)c(C(=O)NCCNC)n1 [Compound 1-187, 2′-ethoxy-5-[(2R)-2-ethyl-4-[6-methoxy-2-(trifluoromethyl)pyridine-3-carbonyl]piperazin-1-yl]-N-[2-(methylamino)ethyl]-[2,3′-bipyridine]-6-carboxamide] |
| < 10 nM | CCOc1ncccc1-c1ccc(N2CCN(C(=O)c3ccc(Cl)cc3C(F)(F)F)C[C@H]2CC)c(C(=O)NCC2=NCCN2)c1F [Compound 1-188, 6-[(2R)-4-[4-chloro-2-(trifluoromethyl)benzoyl]-2-ethylpiperazin-1-yl]-N-[(4,5-dihydro-1H-imidazol-2-yl)methyl]-3-(2-ethoxypyridin-3-yl)-2-fluorobenzamide] |
| < 10 nM | CCOc1ncccc1-c1ccc(N2CCN(C(=O)c3ccc(F)cc3C(F)F)C[C@H]2CC)c(C(=O)N[C@@H]2CCNC2)c1F [Compound 1-189, 6-[(2R)-4-[2-(difluoromethyl)-4-fluorobenzoyl]-2-ethylpiperazin-1-yl]-3-(2-ethoxypyridin-3-yl)-2-fluoro-N-[(3R)-pyrrolidin-3-yl]benzamide] |
| < 10 nM | CCOc1ncccc1-c1ccc(N2CCN(C(=O)c3ccc(Cl)cc3C(F)F)C[C@H]2CC)c(C(=O)N[C@@H]2CCNC2)c1F [Compound 1-190, 6-[(2R)-4-[4-chloro-2-(difluoromethyl)benzoyl]-2-ethylpiperazin-1-yl]-3-(2-ethoxypyridin-3-yl)-2-fluoro-N-[(3R)-pyrrolidin-3-yl]benzamide] |
| < 10 nM | CCOc1ncccc1-c1ccc(N2CCN(C(=O)c3ccc(Cl)cc3C(F)(F)F)C[C@H]2CC)c(C(=O)NC2CNC2)c1F [Compound 1-198, N-(azetidin-3-yl)-6-[(2R)-4-[4-chloro-2-(trifluoromethyl)benzoyl]-2-ethylpiperazin-1-yl]-3-(2-ethoxypyridin-3-yl)-2-fluorobenzamide] |
| < 10 nM | CCOc1ncccc1-c1ccc(N2CCN(C(=O)c3ccc(Cl)cc3C(F)(F)F)C[C@H]2CC)c(C(=O)N[C@@H]2CCN(C)C2)c1F [Compound 1-199, 6-[(2R)-4-[4-chloro-2-(trifluoromethyl)benzoyl]-2-ethylpiperazin-1-yl]-3-(2-ethoxypyridin-3-yl)-2-fluoro-N-[(3R)-1-methylpyrrolidin-3-yl]benzamide] |
| < 10 nM | CCOc1ncccc1-c1ccc(N2CCN(C(=O)c3ccc(Cl)cc3C(F)(F)F)C[C@H]2CC)c(C(=O)N[C@H]2CCNC2)c1F [Compound 1-200, 6-[(2R)-4-[4-chloro-2-(trifluoromethyl)benzoyl]-2-ethylpiperazin-1-yl]-3-(2-ethoxypyridin-3-yl)-2-fluoro-N-[(3S)-pyrrolidin-3-yl]benzamide] |
| < 10 nM | CCOc1ncccc1-c1ccc(N2CCN(C(=O)c3ccc(Cl)cc3C(F)(F)F)C[C@H]2CC)c(C(=O)N[C@H]2CCN(C)C2)c1F [Compound 1-201, 6-[(2R)-4-[4-chloro-2-(trifluoromethyl)benzoyl]-2-ethylpiperazin-1-yl]-3-(2-ethoxypyridin-3-yl)-2-fluoro-N-[(3S)-1-methylpyrrolidin-3-yl]benzamide] |
| < 10 nM | CCOc1ncccc1-c1ccc(N2CCN(C(=O)c3ccc(OC)cc3C(F)(F)F)C[C@H]2CC)c(C(=O)NC2CNC2)c1F [Compound 1-202, N-(azetidin-3-yl)-3-(2-ethoxypyridin-3-yl)-6-[(2R)-2-ethyl-4-[4-methoxy-2-(trifluoromethyl)benzoyl]piperazin-1-yl]-2-fluorobenzamide] |
| < 10 nM | CCOc1ncccc1-c1ccc(N2CCN(C(=O)c3ccc(OC)cc3C(F)(F)F)C[C@H]2CC)c(C(=O)NC2CN(C)C2)c1F [Compound 1-203, 3-(2-ethoxypyridin-3-yl)-6-[(2R)-2-ethyl-4-[4-methoxy-2-(trifluoromethyl)benzoyl]piperazin-1-yl]-2-fluoro-N-(1-methylazetidin-3-yl)benzamide] |
| < 10 nM | CCOc1ccccc1-c1ccc(N2CCN(C(=O)c3ccc(Cl)cc3C(F)(F)F)C[C@H]2CC)c(C(=O)N[C@@H]2CCN(C)C2)n1 [Compound 1-206, 3-[(2R)-4-[4-chloro-2-(trifluoromethyl)benzoyl]-2-ethylpiperazin-1-yl]-6-(2-ethoxyphenyl)-N-[(3R)-1-methylpyrrolidin-3-yl]pyridine-2-carboxamide] |
| < 10 nM | CCOc1ccc(C(=O)N2CCN(c3ccc(-c4cccnc4OCC)nc3C(=O)NCCN(C)C)[C@H](CC)C2)c(C(F)(F)F)n1 [Compound 1-207, N-[2-(dimethylamino)ethyl]-2′-ethoxy-5-[(2R)-4-[6-ethoxy-2-(trifluoromethyl)pyridine-3-carbonyl]-2-ethylpiperazin-1-yl]-[2,3′-bipyridine]-6-carboxamide] |
| < 10 nM | CCOc1ccccc1-c1ccc(N2CCN(C(=O)c3ccc(Cl)cc3C(F)(F)F)C[C@H]2CC)c(C(=O)NCCNC)n1 [Compound 1-208, 3-[(2R)-4-[4-chloro-2-(trifluoromethyl)benzoyl]-2-ethylpiperazin-1-yl]-6-(2-ethoxyphenyl)-N-[2-(methylamino)ethyl]pyridine-2-carboxamide] |
| < 10 nM | CCOc1ccccc1-c1ccc(N2CCN(C(=O)c3ccc(Cl)cc3C(F)(F)F)C[C@H]2CC)c(C(=O)N[C@@H]2CCNC2)n1 [Compound 1-209, 3-[(2R)-4-[4-chloro-2-(trifluoromethyl)benzoyl]-2-ethylpiperazin-1-yl]-6-(2-ethoxyphenyl)-N-[(3R)-pyrrolidin-3-yl]pyridine-2-carboxamide] |
| < 10 nM | CCOc1ncccc1-c1ccc(N2CCN(C(=O)c3ccc(Cl)cc3C(F)F)C[C@H]2CC)c(C(=O)NCCN(C)C)n1 [Compound 1-210, 5-[(2R)-4-[4-chloro-2-(difluoromethyl)benzoyl]-2-ethylpiperazin-1-yl]-N-[2-(dimethylamino)ethyl]-2′-ethoxy-[2,3′-bipyridine]-6-carboxamide] |
| < 10 nM | CCOc1ncccc1-c1ccc(N2CCN(C(=O)c3ccc(Cl)cc3C(F)(F)F)C[C@H]2CC)c(C(=O)NC2CNC2)n1 [Compound 1-211, N-(azetidin-3-yl)-5-[(2R)-4-[4-chloro-2-(trifluoromethyl)benzoyl]-2-ethylpiperazin-1-yl]-2′-ethoxy-[2,3′-bipyridine]-6-carboxamide] |
| < 10 nM | CCOc1ncccc1-c1ccc(N2CCN(C(=O)c3ccc(Cl)cc3C(F)(F)F)C[C@H]2CC)c(C(=O)NC2CN(C)C2)n1 [Compound 1-212, 5-[(2R)-4-[4-chloro-2-(trifluoromethyl)benzoyl]-2-ethylpiperazin-1-yl]-2′-ethoxy-N-(1-methylazetidin-3-yl)-[2,3′-bipyridine]-6-carboxamide] |
| < 10 nM | CCOc1ncccc1-c1ccc(N2CCN(C(=O)c3ccc(Cl)cc3C(F)F)C[C@H]2CC)c(C(=O)NCCNC)n1 [Compound 1-213, 5-[(2R)-4-[4-chloro-2-(difluoromethyl)benzoyl]-2-ethylpiperazin-1-yl]-2′-ethoxy-N-[2-(methylamino)ethyl]-[2,3′-bipyridine]-6-carboxamide] |
| < 10 nM | CCOc1ncccc1-c1ccc(N2CCN(C(=O)c3ccc(Cl)cc3C(F)(F)F)C[C@H]2CC)c(C(=O)N[C@H]2CCNC2)n1 [Compound 1-214, 5-[(2R)-4-[4-chloro-2-(trifluoromethyl)benzoyl]-2-ethylpiperazin-1-yl]-2′-ethoxy-N-[(3S)-pyrrolidin-3-yl]-[2,3′-bipyridine]-6-carboxamide] |
| < 10 nM | CCOc1ncccc1-c1ccc(N2CCN(C(=O)c3ccc(Cl)cc3C(F)(F)F)C[C@H]2CC)c(C(=O)N[C@H]2CCN(C)C2)n1 [Compound 1-215, 5-[(2R)-4-[4-chloro-2-(trifluoromethyl)benzoyl]-2-ethylpiperazin-1-yl]-2′-ethoxy-N-[(3S)-1-methylpyrrolidin-3-yl]-[2,3′-bipyridine]-6-carboxamide] |
| < 10 nM | CCOc1ncccc1-c1ccc(N2CCN(C(=O)c3ccc(Cl)cc3C(F)(F)F)C[C@H]2CC)c(C(=O)NC2CN(C)C2)c1 [Compound 1-216, 2-[(2R)-4-[4-chloro-2-(trifluoromethyl)benzoyl]-2-ethylpiperazin-1-yl]-5-(2-ethoxypyridin-3-yl)-N-(1-methylazetidin-3-yl)benzamide] |
| < 10 nM | CCOc1ncccc1-c1ccc(N2CCN(C(=O)c3ccc(Cl)cc3C(F)(F)F)C[C@H]2CC)c(C(=O)NCCC2=NCCN2)c1F [Compound 1-219, 6-[(2R)-4-[4-chloro-2-(trifluoromethyl)benzoyl]-2-ethylpiperazin-1-yl]-N-[2-(4,5-dihydro-1H-imidazol-2-yl)ethyl]-3-(2-ethoxypyridin-3-yl)-2-fluorobenzamide] |
| < 10 nM | CCOc1ccccc1-c1ccc(N2CCN(C(=O)c3ccc(Cl)cc3C(F)(F)F)C[C@H]2CC)c(C(=O)NC2CNC2)n1 [Compound 1-220, N-(azetidin-3-yl)-3-[(2R)-4-[4-chloro-2-(trifluoromethyl)benzoyl]-2-ethylpiperazin-1-yl]-6-(2-ethoxyphenyl)pyridine-2-carboxamide] |
